Results taken from patent publication US8895625B2, “Protective effect of thymoquinone in sepsis” (King Saud University, priority 2009, dated 2014).

Legend:
[1] = tested on: endotoxin (lipopolysaccharide, LPS Escherichia coli O111:B4) induced sepsis; experiment: Endotoxin sepsis model (LPS challenge), survival by Kaplan-Meier; type: in vivo, mice; details: 4 h before 2 mg/kg LPS, followed 4 days, P<0.01
Description: 1.1 Endotoxin Sepsis Model (LPS Escherichia coli O111:B4)
Two groups of animals (ten mice each) weighing ˜25 g were treated intraperitoneally with 1 or 2 mg/kg (single dose) of thymoquinone prepared in 10% DMSO; a control group (treated with only 10% DMSO) was also simultaneously run. Four hours after thymoquinone treatment, all groups were challenged with 2 mg/kg endotoxin (lipopolysaccharide, LPS) prepared in normal saline. Mortality of groups was followed for 4 days, and survival (primary endpoint) was calculated using Kaplan-Meier analysis.

[2] = tested on: E. coli (ATCC-25992); experiment: Gram-negative bacteria sepsis model (E. coli challenge), survival by Kaplan-Meier; type: in vivo, mice; details: followed 2 days, P<0.01
Description: 1.2 Gram-Negative Bacteria Sepsis Model
Two groups of animals (twelve mice each) weighing ˜25 g were treated intraperitoneally with 0.75 or 1 mg/kg/day (for three days) of thymoquinone prepared in 10% DMSO; a control group (treated with only 10% DMSO) was also simultaneously run. Four hours after thymoquinone treatment, all groups were challenged with 2 μl/g E. coli (ATCC-25992, […] CFU/ml) prepared in normal saline. Mortality in treated groups was followed for 2 days, and survival (primary endpoint) was calculated using Kaplan-Meier analysis.

[3] = tested on: sepsis caused by E. coli bacteria; experiment: Biochemical blood analyses following E. coli administration; type: in vivo, mice; details: 6 h after E. coli administration
Description: (§1) In another set of experiments and after 6 h of E. coli administration, animals were lightly anesthetized with ether, and blood samples were collected, centrifuged and the resultant plasma were stored at −80° C. and used within 48 h. The levels of TNF-α, IL-1α, IL-2 and IL-10 were determined using an ELISA technique. Important biochemical parameters including blood serum creatinine, blood urea nitrogen, alanine transferase (ALT), albumin, and total lactate dehydrogenase (LDH) and creatinine kinase (CK) were also assessed in treated animals using commercially available kits according to the manufacturer's directions.

[4] = tested on: sepsis induced by E. coli bacteria; experiment: Immunological serum analyses (ELISA) following E. coli administration; type: in vivo, mice; details: 6 h after E. coli administration
Description: as §1

[5] = tested on: parental and multidrug resistant tumor cells; details: cited from earlier work
[6] = PROWESS trial, compared to placebo; cited from earlier work
[7] = cited from earlier work

| Compound | protection efficacy against mortality in endotoxin induced sepsis ([1]; 1 mg/kg i.p. single dose) | protection efficacy against mortality in endotoxin induced sepsis ([1]; 2 mg/kg i.p. single dose) [%] | protection efficacy against mortality in sepsis induced by Gram-negative bacteria ([2]; 0.75 mg/kg/day i.p. for three days) | protection efficacy against mortality in sepsis induced by Gram-negative bacteria ([2]; 1 mg/kg/day i.p. for three days) | blood urea nitrogen (kidney dysfunction biomarker) ([3]; FIG. 4A) | serum creatinine (kidney dysfunction biomarker) ([3]; FIG. 4B) | alanine transferase (liver dysfunction biomarker) ([3]; FIG. 4C) | plasma albumin level ([3]; FIG. 4D) | total creatinine kinase (marker of tissue injury) ([3]; FIG. 4E) | total lactate dehydrogenase (marker of tissue injury) ([3]; FIG. 4F) | TNF-α level ([4]; FIG. 5A) | IL-1α level ([4]; FIG. 5B) | IL-2 level ([4]; FIG. 5C) | IL-10 level ([4]; FIG. 5D) | cytotoxicity to parental and multidrug resistant tumor cells [5] | absolute decrease in mortality rate [6] [%] | relative risk reduction (mortality) [6] [%] | efficacy in sepsis patients ([7]; patients with a low risk of death or pediatric patients) | 28-day mortality rate ([7]; subgroup with recent surgery and single-organ dysfunction, placebo 14.1%, P=0.03) [%] |
| --- | --- | --- | --- | --- | --- | --- | --- | --- | --- | --- | --- | --- | --- | --- | --- | --- | --- | --- | --- |
| CC1=CC(=O)C(C(C)C)=CC1=O [thymoquinone, 2-isopropyl-5-methyl-1,4-benzoquinone] | about 80% | ~90 | about 90% | about 90% | Important reductions | Important reductions | Important reductions | improvement in albumin level | Important reductions | Important reductions | Significant reductions | Significant reductions | Significant reductions | Significant reductions | cytotoxic |  |  |  |  |
| drotrecogin alfa |  |  |  |  |  |  |  |  |  |  |  |  |  |  |  | 6 | 19 | not effective | 20.7 |
